According to ChEMBL document CHEMBL1149960, “Synthesis, insecticidal and anti-acetylcholinesterase activity of a new class of heterocyclic methanesulfonates” (Bioorg Med Chem Lett, 1996):
pIC50: −log10 of the molar value. Values after ≈ are worked out from the molar mass of the structure shown.

Experiments:
Acetylcholinesterase = target: T1, Acetylcholinesterase (Bos taurus, UniProt P23795)
T1 sequence (P23795 whole entry): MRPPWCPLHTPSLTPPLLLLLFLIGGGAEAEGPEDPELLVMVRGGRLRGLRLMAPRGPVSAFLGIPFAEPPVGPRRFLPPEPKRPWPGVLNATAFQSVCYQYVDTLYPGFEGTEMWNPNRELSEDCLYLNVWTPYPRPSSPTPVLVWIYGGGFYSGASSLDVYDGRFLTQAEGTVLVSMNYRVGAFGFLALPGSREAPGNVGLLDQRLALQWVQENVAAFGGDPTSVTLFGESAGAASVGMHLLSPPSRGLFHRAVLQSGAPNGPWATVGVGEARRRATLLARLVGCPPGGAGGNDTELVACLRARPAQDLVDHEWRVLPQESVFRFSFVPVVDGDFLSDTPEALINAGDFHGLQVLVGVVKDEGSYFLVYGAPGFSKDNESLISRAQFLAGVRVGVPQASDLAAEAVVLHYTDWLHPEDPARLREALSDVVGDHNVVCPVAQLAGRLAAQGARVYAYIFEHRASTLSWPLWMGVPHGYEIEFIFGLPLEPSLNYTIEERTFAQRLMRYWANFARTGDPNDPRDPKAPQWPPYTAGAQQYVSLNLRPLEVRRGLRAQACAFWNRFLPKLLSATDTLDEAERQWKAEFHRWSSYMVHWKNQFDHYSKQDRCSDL
Description: Inhibition of bovine erythrocyte acetylcholinesterase (AChE)

[1] = test system: Diabrotica undecimpunctata; assay: whole plant or invertebrate; settings: in Zea mays, read-out: LD50
Description: Insecticidal activity against southern Corn rootworm (SCRW)

Lucilia cuprina = assay: whole plant or invertebrate
Description: Insecticidal activity against blowfly Lucilia cuprina

With `CC1(C)CC(OS(C)(=O)=O)=NN1C(=O)Nc1ccccc1` the pIC50 (Acetylcholinesterase) was < 3.00, the LC50 [1] was > 1000 µg/mL and the LD50 (Lucilia cuprina) was > 100 mg/kg.
`CC(C)NC(=O)N1N=C(OS(C)(=O)=O)CC1C` (stereo unspecified) was tested, and the pIC50 (Acetylcholinesterase) was 4.54, the LC50 [1] was < 0.5 µg/mL and the LD50 (Lucilia cuprina) was 21 mg/kg.
In the case of `CC(C)NS(=O)(=O)N1N=C(OS(C)(=O)=O)CC1c1ccccc1` (stereo unspecified), the pIC50 (Acetylcholinesterase) was < 3.00, the LC50 [1] was > 1000 µg/mL and the LD50 (Lucilia cuprina) was > 100 mg/kg.
For `CC1(C)CC(OS(C)(=O)=O)=NN1C(=O)NC1CCCCC1`, the pIC50 (Acetylcholinesterase) was 3.55, the LC50 [1] was > 1000 µg/mL and the LD50 (Lucilia cuprina) was 2.64 mg/kg.
Work on `CC(C)NS(=O)(=O)N1N=C(OS(C)(=O)=O)CC1(C)C` yielded a pIC50 (Acetylcholinesterase) of 2.90, an LC50 [1] of 60 µg/mL (≈ 191 µM) and an LD50 (Lucilia cuprina) of 37 mg/kg.
For `CC1(C)CC(OS(C)(=O)=O)=NN1S(C)(=O)=O`, the pIC50 (Acetylcholinesterase) was < 3.00, the LC50 [1] was > 1000 µg/mL and the LD50 (Lucilia cuprina) was > 1000 mg/kg.
`CC(C)C(=O)N1N=C(OS(C)(=O)=O)CC1(C)C` was tested, and the pIC50 (Acetylcholinesterase) was < 3.00, the LC50 [1] was 120 µg/mL (≈ 457 µM) and the LD50 (Lucilia cuprina) was > 100 mg/kg.
With `CCCS(=O)(=O)N1N=C(OS(C)(=O)=O)CC1c1ccccc1` (stereo unspecified) the pIC50 (Acetylcholinesterase) was 4.20, the LC50 [1] was > 1000 µg/mL and the LD50 (Lucilia cuprina) was > 100 mg/kg.
In the case of `CC(C)(C)NC(=O)N1N=C(OS(C)(=O)=O)CC1(C)C`, the pIC50 (Acetylcholinesterase) was < 3.00, the LC50 [1] was 12 µg/mL (≈ 41.2 µM) and the LD50 (Lucilia cuprina) was 75.9 mg/kg.
In the case of `CCOC(=O)N1N=C(OS(C)(=O)=O)CC1(C)C`, the pIC50 (Acetylcholinesterase) was < 3.00, the LC50 [1] was > 1000 µg/mL and the LD50 (Lucilia cuprina) was > 100 mg/kg.
`CC1(C)CC(OS(C)(=O)=O)=NN1C(N)=O` was tested, and the pIC50 (Acetylcholinesterase) was < 3.00, the LC50 [1] was > 1000 µg/mL and the LD50 (Lucilia cuprina) was > 1000 mg/kg.
In the case of `CN(C)S(=O)(=O)N1N=C(OS(C)(=O)=O)CC1c1ccccc1` (stereo unspecified), the pIC50 (Acetylcholinesterase) was < 3.00, the LC50 [1] was > 1000 µg/mL and the LD50 (Lucilia cuprina) was > 100 mg/kg.
In the case of `CC(C)NC(=O)N1N=C(OS(C)(=O)=O)CC1C(C)C` (stereo unspecified), the pIC50 (Acetylcholinesterase) was 3.22, the LC50 [1] was 5 µg/mL (≈ 17.2 µM) and the LD50 (Lucilia cuprina) was 25.1 mg/kg.
`CC(C)CS(=O)(=O)c1cccc(OS(C)(=O)=O)n1` was tested, and the pIC50 (Acetylcholinesterase) was 4.22, the LC50 [1] was < 0.5 µg/mL and the LD50 (Lucilia cuprina) was > 100 mg/kg.
With `CC(C)NC(=O)N1N=C(OS(C)(=O)=O)CC1c1ccccc1` (stereo unspecified) the pIC50 (Acetylcholinesterase) was 4.39, the LC50 [1] was < 0.5 µg/mL and the LD50 (Lucilia cuprina) was 34.4 mg/kg.
`CCCNS(=O)(=O)N1N=C(OS(C)(=O)=O)CC1(C)C` was tested, and the pIC50 (Acetylcholinesterase) was < 3.00, the LC50 [1] was 55 µg/mL (≈ 175 µM) and the LD50 (Lucilia cuprina) was 40.9 mg/kg.
`C=CCNC(=O)N1N=C(OS(C)(=O)=O)CC1(C)C` was tested, and the pIC50 (Acetylcholinesterase) was 3.83, the LC50 [1] was 1.6 µg/mL (≈ 5.81 µM) and the LD50 (Lucilia cuprina) was 6.84 mg/kg.
Work on `CC(C)NC(=O)N1N=C(OS(C)(=O)=O)CC1(C)C` yielded a pIC50 (Acetylcholinesterase) of 3.15, an LC50 [1] of 1 µg/mL (≈ 3.61 µM) and an LD50 (Lucilia cuprina) of 7.14 mg/kg.
With `COP(=O)(OC)C(O)C(Cl)(Cl)Cl` (stereo unspecified) [TRICHLORFON] the pIC50 (Acetylcholinesterase) was < 3.00 and the LD50 (Lucilia cuprina) was 21.8 mg/kg.
